# In ChEMBL document CHEMBL1131756, “Synthesis and biological activity of anthelmintic thiadiazoles using an AF-2 receptor binding assay” (Bioorg Med Chem Lett, 1999):
# Target: AF2 neuropeptide receptor
# Assay: In vitro antihelminthic activity using AF2 Neuropeptide receptor binding assay in Caenorhabditis elegans
row,IC50 [µM],SMILES
1,> 100,N=c1sc(-c2c(F)cccc2C(F)(F)F)nn1-c1c(Cl)cc(C(F)(F)F)cc1Cl
2,0.63,N=c1sc(-c2cc([N+](=O)[O-])ccc2F)nn1-c1c(Cl)cc(C(F)(F)F)cc1Cl
3,5,N=c1sc(-c2ccc(OC(F)(F)F)cc2)nn1-c1c(Cl)cc(Cl)cc1Cl
4,4,N=c1sc(-c2ccc(O)cc2)nn1-c1c(Cl)cc(Cl)cc1Cl
5,0.15,N=c1sc(-c2ccccc2F)nn1-c1c(Cl)cc(C(F)(F)F)cc1Cl
6,20,N=c1sc(-c2ccc(C(F)(F)F)cc2)nn1-c1c(Cl)cc(Cl)cc1Cl
7,3,N=c1sc(-c2ccccc2)nn1-c1c(Cl)cc(Cl)cc1Cl
8,0.037,CC(C)(C)c1cc(-c2nn(-c3c(Cl)cc(C(F)(F)F)cc3Cl)c(=N)s2)ccn1
9,0.13,COC(=O)c1ccnc(-c2nn(-c3c(Cl)cc(C(F)(F)F)cc3Cl)c(=N)s2)c1
10,80,COc1ccc(-c2nn(-c3c(Cl)cc(Cl)cc3Cl)c(=N)s2)cc1
11,70,CC(=O)Nc1ccc(-c2nn(-c3c(Cl)cc(Cl)cc3Cl)c(=N)s2)cc1
12,1,N=c1sc(-c2ccc(C(F)(F)F)cc2F)nn1-c1c(Cl)cc(Cl)cc1Cl
13,4,Cc1ccccc1-c1nn(-c2c(Cl)cc(Cl)cc2Cl)c(=N)s1
14,40,N=c1sc(-c2cccnc2)nn1-c1c(Cl)cc(Cl)cc1Cl
15,0.9,N=c1sc(-c2ccc(F)cc2)nn1-c1c(Cl)cc(Cl)cc1Cl
16,2.6,N=c1sc(-c2ccncn2)nn1-c1c(Cl)cc(C(F)(F)F)cc1Cl
17,0.013,N=c1sc(-c2ccnc([N+](=O)[O-])c2)nn1-c1c(Cl)cc(C(F)(F)F)cc1Cl
18,6,N#Cc1ccc(-c2nn(-c3c(Cl)cc(Cl)cc3Cl)c(=N)s2)cc1
19,0.01,N#Cc1ccnc(-c2nn(-c3c(Cl)cc(C(F)(F)F)cc3Cl)c(=N)s2)c1
20,0.5,N=c1sc(-c2ccccc2F)nn1-c1c(Cl)cc(Cl)cc1Cl
21,35,N=c1sc(-c2cccnn2)nn1-c1c(Cl)cc(C(F)(F)F)cc1Cl
22,85,N=c1sc(-c2ccccc2OC(F)(F)F)nn1-c1c(Cl)cc(C(F)(F)F)cc1Cl
23,0.021,N=c1sc(-c2cncc(C(F)(F)F)c2)nn1-c1c(Cl)cc(C(F)(F)F)cc1Cl
24,20,N=c1sc(-c2cccc(Br)n2)nn1-c1c(Cl)cc(C(F)(F)F)cc1Cl

row,IC50 [µM],SMILES
1,4,CCOC(=O)Oc1ccc(-c2nn(-c3c(Cl)cc(Cl)cc3Cl)c(=N)s2)cc1
2,0.4,N=c1sc(-c2ccccn2)nn1-c1c(Cl)cc(Cl)cc1Cl
3,11,COC(=O)c1ccc(-c2nn(-c3c(Cl)cc(Cl)cc3Cl)c(=N)s2)cc1
4,0.09,N=c1sc(-c2ccccn2)nn1-c1c(Cl)cc(C(F)(F)F)cc1Cl
5,56,N=c1sc(-c2ccccc2SC(F)(F)F)nn1-c1c(Cl)cc(C(F)(F)F)cc1Cl
6,0.37,N=c1sc(-c2cc(F)ccc2F)nn1-c1c(Cl)cc(C(F)(F)F)cc1Cl
7,11,Cc1cccnc1-c1nn(-c2c(Cl)cc(C(F)(F)F)cc2Cl)c(=N)s1
8,4,COc1ccc(OC)c(-c2nn(-c3c(Cl)cc(C(F)(F)F)cc3Cl)c(=N)s2)c1
9,4,N=c1sc(-c2cccc(C(F)(F)F)c2F)nn1-c1c(Cl)cc(Cl)cc1Cl
10,0.14,N=c1sc(-c2ccccn2)nn1-c1c(Cl)cc(Cl)cc1C(F)(F)F
11,8,N=c1sc(-c2cccc(F)c2)nn1-c1c(Cl)cc(Cl)cc1Cl
12,0.63,N=c1sc(-c2cc(Br)ccc2F)nn1-c1c(Cl)cc(C(F)(F)F)cc1Cl
13,0.16,N=c1sc(-c2cc(Cl)ccn2)nn1-c1c(Cl)cc(C(F)(F)F)cc1Cl
14,4,N=c1sc(-c2ccc(Br)cc2)nn1-c1c(Cl)cc(Cl)cc1Cl
15,5,N=c1sc(-c2ccc(Cl)cc2)nn1-c1c(Cl)cc(Cl)cc1Cl
16,0.2,N=c1sc(-c2cnccn2)nn1-c1c(Cl)cc(C(F)(F)F)cc1Cl
17,7,Cc1ccc(-c2nn(-c3c(Cl)cc(Cl)cc3Cl)c(=N)s2)cc1
18,0.063,N=c1sc(-c2cc(C(F)(F)F)ccc2F)nn1-c1c(Cl)cc(C(F)(F)F)cc1Cl
19,47,N=c1sc(-c2cc(CN)ccn2)nn1-c1c(Cl)cc(C(F)(F)F)cc1Cl
20,0.1,N=c1sc(-c2cc(C(F)(F)F)ccc2F)nn1-c1c(Cl)cc(Cl)cc1Cl
21,> 100,COC(=O)c1ccccc1-c1nn(-c2c(Cl)cc(C(F)(F)F)cc2Cl)c(=N)s1
22,2.4,N=c1sc(-c2ncc(C(F)(F)F)cc2Cl)nn1-c1c(Cl)cc(C(F)(F)F)cc1Cl
23,5,N=c1sc(-c2ccc([N+](=O)[O-])cc2)nn1-c1c(Cl)cc(Cl)cc1Cl
